Test results taken from patent US20260091143A1, “NEAR-INFRARED IMAGING AGENT AND USES THEREOF” (CASE WESTERN RESERVE UNIVERSITY, priority 2022, published 2026).
Where no end group is shown, it is not given here.

Columns and labels:
[1] = test system: LN-229 glioma flank tumor; test: In vivo fluorescent imaging of tumor signal in LN-229 flank tumor-bearing nude mice; conditions: for p-value, in vivo tumor ROI mean, ICG vs SBK2-CLE-ICG: ICG 400 nmol/kg vs 300 nmol/kg SBK2-CLE-ICG; for p-value, in vivo tumor ROI mean, ICG vs SBK2-CLE-ICG / p-value, in vivo tumor ROI mean, ICG vs SBK2-ICG / p-value, in vivo tumor ROI mean, ICG vs Scram-CLE-ICG / p-value, in vivo tumor ROI mean, ICG vs Scram-ICG: Welch's t-test; for p-value, in vivo tumor ROI mean, ICG vs SBK2-ICG: ICG 400 nmol/kg vs 300 nmol/kg SBK2-ICG; for p-value, in vivo tumor ROI mean, ICG vs Scram-CLE-ICG: ICG 400 nmol/kg vs 300 nmol/kg Scram-CLE-ICG; for p-value, in vivo tumor ROI mean, ICG vs Scram-ICG: ICG 400 nmol/kg vs 300 nmol/kg Scram-ICG
Description: (§1) All applicable institutional and/or NIH guidelines for the care and use of animals were followed. The Case Western Reserve University Institutional Animal Care and Use Committee reviewed and approved the animal protocols. Outbred homozygous female nude mice (Fox1^nu/Fox1^nu) were purchased from Jackson Laboratory, Bar Harbor, ME, USA. Details of the human glioblastoma LN-229 cell line have been described previously. LN-229 cells express the PTPμ biomarker and have been used in previous studies for evaluating PTPμ-targeted agents using different imaging modalities. Flank tumors were started in the right flank of mice at approximately 7 weeks of age by injecting a mixture of 2×10^6 cells and Matrigel® Matrix (Corning®, Corning Inc., Corning, NY, USA). Experiments were performed in mice 4 to 8 weeks after implanting the tumors.
(§2) The IVIS Spectrum In vivo Imaging System and Living Image analysis software, (Perkin Elmer, Hopkinton, MA, USA) were used for acquisition and analysis of mouse images. Prior to the experiment, mice were weighed, and baseline images acquired using the appropriate filter sets and the autoexposure setting. Three filter sets for excitation/emission were used: 745 nm/800 nm, 745 nm/820 nm, 745 nm/840 nm. The filter set showing highest fluorescence intensity for a fluorophore was used throughout for that dye. For ICG, 745 nm/820 nm was used and for IRDye® 800CW and Tide Fluor™ 8WS, 745 nm/800 nm was used. Agent stocks were diluted in saline or PBS to ˜100 μM and the volume needed for the desired dose of 300 nmol/kg or 400 nmol/kg calculated. Doses were loaded into polyurethane tubing and connected to a 1 mL syringe as previously described. Mice were anesthetized in an induction chamber with 2% isoflurane-oxygen and moved onto a 37° C. heated platform with a nose cone. 26-gauge veterinary catheters were placed in each tail and the preloaded tubing was connected. Agents were injected over 30 sec, catheters were removed, and animals placed in the prepared Spectrum imaging chamber. Images were acquired beginning 10 min after injecting the agents. For SBK2-CCLE-IR800 and Scram-CCLE-IR800, images were acquired every 10 min for 60 min. For the ICG-labeled and TF8WS-labeled peptides, images were acquired at 10 min, 30 min, 1 h, 2 h, 4 h, 8 h, and 24 h. At the end of the imaging time, the animals were euthanized by CO2 asphyxiation, and the tumor and other organs excised and imaged on the Spectrum.
(§3) Living Image analysis software was used for region of interest (ROI) analysis of the optical data. Images acquired for each time point consist of a fluorescent image superimposed on a photographic image. Binning was set to 1 and in vivo tumor ROIs were manually drawn based on contours visible in the black and white photograph for each timepoint. After outlining the tumor ROIs, fluorescence was measured with the built-in Spectrum function. For excised tumors, kidneys, spleen and liver, ROIs were drawn around the perimeter of the tumor or organ.
(§4) LivingImage software measures fluorescence intensity in units of radiant efficiency. For these analyses, average radiant efficiency measurements in (photons/s/cm^2/steradian)/(μW/cm^2) were used for further comparisons to account for differences in tumor and organ size. GraphPad Prism 9 was used for plots and statistical analyses. Where indicated, means for pairs of agents were compared using a two-tailed t-test with Welch's correction and statistical significance was assumed at p<0.05. Welch's correction was used to eliminate assumptions about variance between the groups being compared.

[2] = Whole-body and ventral fluorescent imaging of biodistribution and clearance; assay type: in vivo, mice; conditions: for clearance via the renal system: mouse, in vivo
Description: as §2

[3] = RP-HPLC and LC-MS/MS of IRDye 800CW-labeled agent stocks warmed to room temperature; assay type: physicochemical; conditions: RP-HPLC
Description: The hydrophilic nature and pH sensitivity of the IRDye® 800CW precluded on-resin coupling in the organic solvents and TFA-based cleavage cocktail used for ICG-labeled molecules. IRDye® 800CW maleimide was conjugated in aqueous solution following the manufacturer's recommended protocol to cysteine residues at the N-termini of the peptides and obtained at >95% purity from PolyPeptide Group. Additional LC-MS/MS analyses using an Orbitrap Elite LC-MS, purchased via an NIH shared instrument grant, 1S10RR031537-01, were performed on these agents by the Lerner Research Institute Proteomics Core at the Cleveland Clinic.
Similar to Tide Fluor™ 8WS, the hydrophilic nature of the IRDye® 800CW results in elution of the SBK2-CCLE-IR800 at around 25 min (FIG. 7). In assessing the IRDye® 800CW-labeled agents by RP-HPLC however, a second peak appeared when the SBK2-CCLE-IR800 and Scrambled-CCLE-IR800 stocks were warmed to room temperature. LC-MS/MS analysis was performed and confirmed the identity of the main peak as belonging the agents with the closed succinimide ring, while the second peak, representing around 30% of the material, and eluting slightly earlier than the main peak was identified as containing an open succinimide ring (FIG. 1).

[4] = Ex vivo fluorescence in excised kidneys, spleen and liver; design: species or system mice
Description: as §2, §3, §4

[5] = test system: LN-229 glioma flank tumor; test: Ex vivo fluorescence of excised tumors; assay type: in vivo, mice; conditions: 24 h, ICG-labeled agents 300 nmol/kg, ICG 400 nmol/kg, Welch's t-test
Description: as §1, §2
Living Image analysis software was used for region of interest (ROI) analysis of the optical data. […] After outlining the tumor ROIs, fluorescence was measured with the built-in Spectrum function. […]
LivingImage software measures fluorescence intensity in units of radiant efficiency. […]

[6] = Kidney, 24 h, ICG-labeled agents 300 nmol/kg, ICG 400 nmol/kg, Welch's t-test
[7] = Liver, 24 h, ICG-labeled agents 300 nmol/kg, ICG 400 nmol/kg, Welch's t-test
[8] = Spleen, 24 h, ICG-labeled agents 300 nmol/kg, ICG 400 nmol/kg, Welch's t-test

SBK2-CCLE-IR800: IRDye 800CW maleimide conjugated to N-terminal cysteine of C.GGSGGS.GEGDDFNWEQVNTLTKPTSD (SEQ ID NO: 50) ({C(IRDye 800CW maleimide)}-GGSGGSGEGDDFNWEQVNTLTKPTSD)
difference in in vivo tumor average radiant efficiency vs Scram-CCLE-IR800 ([1]; 400 nmol/kg, every ten minutes for 60 minutes): No significant differences | specific tumor labeling ([1]; 400 nmol/kg, versus Scrambled control agents): no specific tumor labeling | clearance via the renal system [2]: more rapidly than expected | second peak containing an open succinimide ring, share of the material [3]: around 30%

CC1(C)C(/C=C/C=C/C=C/C=C2\N(CCCCS(=O)(=O)O)c3ccc4ccccc4c3C2(C)C)=[N+](CCCCS(=O)(=O)[O-])c2ccc3ccccc3c21 [ICG, indocyanine green]
p-value, in vivo tumor ROI mean, ICG vs SBK2-CLE-ICG ([1]; 10 min): <0.001 | p-value, in vivo tumor ROI mean, ICG vs SBK2-ICG ([1]; 10 min): <0.001 | p-value, in vivo tumor ROI mean, ICG vs Scram-CLE-ICG ([1]; 10 min): <0.001 | p-value, in vivo tumor ROI mean, ICG vs Scram-ICG ([1]; 10 min): <0.001 | p-value, in vivo tumor ROI mean, ICG vs SBK2-CLE-ICG ([1]; 30 min): <0.001 | p-value, in vivo tumor ROI mean, ICG vs SBK2-ICG ([1]; 30 min): <0.001 | p-value, in vivo tumor ROI mean, ICG vs Scram-CLE-ICG ([1]; 30 min): <0.001 | p-value, in vivo tumor ROI mean, ICG vs Scram-ICG ([1]; 30 min): <0.001 | p-value, in vivo tumor ROI mean, ICG vs SBK2-CLE-ICG ([1]; 24 h): <0.001 | p-value, in vivo tumor ROI mean, ICG vs SBK2-ICG ([1]; 24 h): <0.001 | p-value, in vivo tumor ROI mean, ICG vs Scram-CLE-ICG ([1]; 24 h): ns | p-value, in vivo tumor ROI mean, ICG vs Scram-ICG ([1]; 24 h): <0.001 | in vivo tumor fluorescence produced ([1]; ICG dye 400 nmol/kg): very little in vivo tumor fluorescence | time of peak in vivo tumor signal ([1]; ICG dye 400 nmol/kg): ≤ 10 min | p-value, average radiant efficiency of excised kidney vs SBK2-CLE-ICG [4, 6]: <0.001 | p-value, average radiant efficiency of excised kidney vs SBK2-ICG [4, 6]: <0.001 | p-value, average radiant efficiency of excised kidney vs Scram-CLE-ICG [4, 6]: 0.008 | p-value, average radiant efficiency of excised kidney vs Scram-ICG [4, 6]: 0.003 | p-value, average radiant efficiency of excised liver vs SBK2-CLE-ICG [4, 7]: 0.004 | p-value, average radiant efficiency of excised liver vs SBK2-ICG [4, 7]: <0.001 | p-value, average radiant efficiency of excised liver vs Scram-CLE-ICG [4, 7]: <0.001 | p-value, average radiant efficiency of excised liver vs Scram-ICG [4, 7]: 0.013 | p-value, average radiant efficiency of excised spleen vs SBK2-CLE-ICG [4, 8]: <0.001 | p-value, average radiant efficiency of excised spleen vs SBK2-ICG [4, 8]: <0.001 | p-value, average radiant efficiency of excised spleen vs Scram-CLE-ICG [4, 8]: <0.001 | p-value, average radiant efficiency of excised spleen vs Scram-ICG [4, 8]: 0.004 | p-value, average radiant efficiency of excised tumor vs SBK2-CLE-ICG [5]: 0.003 | p-value, average radiant efficiency of excised tumor vs SBK2-ICG [5]: <0.001 | p-value, average radiant efficiency of excised tumor vs Scram-CLE-ICG [5]: 0.019 | p-value, average radiant efficiency of excised tumor vs Scram-ICG [5]: 0.003 | clearance compared to ICG-conjugated peptides ([2]; ICG dye 400 nmol/kg): cleared much more rapidly

Scram-CCLE-IR800: IRDye 800CW maleimide conjugated to N-terminal cysteine of C.GGSGGS.GFTQPETGTDNDLWSVDNEK (SEQ ID NO: 51) ({C(IRDye 800CW maleimide)}-GGSGGSGFTQPETGTDNDLWSVDNEK)
difference in liver fluorescence vs SBK2-CCLE-IR800 ([4]; 400 nmol/kg, 60 min, liver): No significant difference | clearance via the renal system [2]: more rapidly than expected | second peak containing an open succinimide ring, share of the material [3]: around 30%
